Converted amounts (≈) assume the structure as drawn.

In the first data set the test system is Toxoplasma gondii. As to the kind of experiment: Antiparasitic activity against Toxoplasma gondii infected in human HFF cells after 7 days by crystal violet assay. The format is functional, organism-based. The note with it: 168 h.
Regarding `CC(C)c1n[nH]c2c(=O)[nH]c(Cc3ccccc3)nc12`, half-maximal inhibition (IC50) was put at 2000 nM.

Compound `C/C1=C\[C@H](C)C[C@H](C)OC(=O)C[C@H](c2ccc(O)cc2)NC(=O)[C@@H](Cc2c(Br)[nH]c3ccccc23)N(C)C(=O)[C@H](C)NC(=O)[C@@H](C)C1` [JASPAMIDE] displayed an EC50 of 30 to 300 nM.

Compound `CCCOc1ccccc1-c1nc2[nH]nnc2c(=O)[nH]1` [ZAPRINAST] returned a 50% inhibitory concentration (IC50) of 60000 nM.

For the next data set, the system named is Toxoplasma gondii. Briefly: Antiparasitic activity against Toxoplasma gondii infected in CF-1 mouse at 0.04 to 50 mg/kg, po after 48 hrs. It counts as functional.
Details: not given
With `Cc1[nH]c2ccccc2c(=O)c1-c1ccc(Oc2ccc(OC(F)(F)F)cc2)cc1`, the 50% effective dose (ED50) amounted to 0.14 mg/kg.

`COc1cc2[nH]c(C)c(-c3ccc(Oc4ccc(OC(F)(F)F)cc4)cc3)c(=O)c2cc1F` registered an ED50 of 0.08 mg/kg.

Another data set concerns Toxoplasma gondii. As to the kind of experiment: Antiparasitic activity against Toxoplasma gondii. It counts as functional, organism-based.
Details: not given
Turning to `Cc1cccc(Cc2nn(C(C)(C)C)c3ncnc(N)c23)c1`, the midpoint of the response, the EC50, lay at 110 nM.

`CCN(CC)c1ccc(C(=O)NC(=O)c2ccccc2O)cc1`: the IC50 came out at 8 nM.

For `O=c1[nH]ccc2nc(NC3CCCNC3)nc(Nc3ccc(S(=O)(=O)N4CCOCC4)cc3)c12` (centres undefined), the IC50 is below 500 nM.

For the compound `O=c1c2ccccc2ncn1C[C@H](O)C[C@H]1NCCC[C@@H]1O`, the EC50 was 1900 nM.

Consider `O=C(C[C@H]1NCCC[C@@H]1O)Cn1cnc2c(c1=O)CCCC2`, for which the half-maximal effective concentration (EC50) amounted to 880 nM.

Regarding `CC(=O)[C@@H]1CC[C@]2(C)CC[C@]3(C)[C@H](CC[C@@H]4[C@@]5(C)CCC(=O)C(C)(C)[C@@H]5CC[C@]43C)[C@@H]12`, the IC50 stood at 24400 nM.

The compound `O=C1CCCN[C@@H]1CCCn1cnc2ccccc2c1=O` gave an EC50 of 8900 nM.

Consider `CC(C)n1c(/C=N/Nc2nc3ccccc3[nH]2)nc2ccccc21`, for which half-maximal inhibition (IC50) required 1360 nM.

`C[C@H]1[C@H](C)CC[C@]2(C(=O)OCCn3cnnc3-c3ccccc3)CC[C@]3(C)C(=CC[C@@H]4[C@@]5(C)CC[C@H](O)C(C)(C)[C@@H]5CC[C@]43C)[C@H]12` had a half-maximal inhibitory concentration (IC50) of 128 µg/mL.

`O=C1C=C/C(=N\Oc2ccc([N+](=O)[O-])cc2[N+](=O)[O-])c2cccnc21` came in with an IC50 of 1340 nM.

In turn, `CCc1ccc(C(=O)NC(=O)c2ccccc2O)cc1` registered an IC50 of 16 to 32 nM.

In turn, `O=C1C2=C(C(=O)c3ccccc31)[C@H]1Oc3ccc(Cl)cc3[C@H]1CO2` came in with a concentration for half-maximal inhibition (IC50) below 1000 nM.

For `COc1ccc(OC)c(NCc2ccc3nc(N)nc(N)c3c2Cl)c1`, the IC50 stood at 20 nM.

Turning to `CC(=O)O[C@H]1CC[C@]2(C)[C@H]3CC=C4[C@@H]5CC(C)(C)CC[C@]5(C(=O)O)CC[C@@]4(C)[C@]3(C)CC[C@H]2C1(C)C` [ACETYL OLEANOLIC ACID], the concentration for half-maximal inhibition (IC50) was 6800 nM.

The compound `CC(C)(C)[C@H]1CC[C@H](CC2=C(O)C(=O)c3ccccc3C2=O)CC1` [BUPARVAQUONE] displayed an IC50 of 100 nM.

In turn, `O=c1[nH]c2cc(Cl)ccc2n1C1CCN(CCCC(c2ccc(F)cc2)c2ccc(F)cc2)CC1` [CLOPIMOZIDE] registered a half-maximal inhibitory concentration (IC50) of 1800 nM.

The compound `O=C(CC1NCCCC1O)Cn1cnc2cc(Br)c(Cl)cc2c1=O` (centres undefined) [HALOFUGINONE] showed an EC50 of 1.4 nM.

`OCCOCCN1CCN(C(c2ccccc2)c2ccc(Cl)cc2)CC1` (centres undefined) [HYDROXYZINE] displayed a half-maximal inhibitory concentration (IC50) of 1000 nM.

On to `C=CC(C)(C)c1cc(/C=C/C(=O)c2ccc(O)cc2)c(OC)cc1O` [LICOAGROCHACONE A], for which inhibition was half-maximal at 0.848 µg/mL (IC50).

For the compound `O=C(Nc1ccc([N+](=O)[O-])cc1Cl)c1cc(Cl)ccc1O` [NICLOSAMIDE], the EC50 worked out at 0.0453 µg/mL.

Turning to `CC(=O)O[C@H]1CC[C@]2(C)[C@H]3CC=C4[C@@H]5[C@@H](C)[C@H](C)CC[C@]5(C(=O)O)CC[C@@]4(C)[C@]3(C)CC[C@H]2C1(C)C` [O-ACETYLURSOLIC ACID], the half-maximal inhibitory concentration (IC50) worked out at 7900 nM.

The compound `CC1(C)CC[C@]2(C(=O)O)CC[C@]3(C)C(=CC[C@@H]4[C@@]5(C)CC[C@H](O)C(C)(C)[C@@H]5CC[C@]43C)[C@@H]2C1` [OLEANOLIC_ACID] returned a concentration for half-maximal inhibition (IC50) of 54800 nM.

As to `CC/C(=C(\c1ccccc1)c1ccc(OCCN(C)C)cc1)c1ccccc1` [TAMOXIFEN], the concentration for half-maximal inhibition (IC50) worked out at 1900 nM.

`Cc1coc2c1C(=O)C(=O)c1c-2ccc2c1CCCC2(C)C` [TANSHINONE IIA]: 2500 nM corresponded to half-maximal inhibition (IC50).

On to `C[C@H]1[C@H](C)CC[C@]2(C(=O)O)CC[C@]3(C)C(=CC[C@@H]4[C@@]5(C)CC[C@H](O)C(C)(C)[C@@H]5CC[C@]43C)[C@H]12` [URSOLIC ACID], for which inhibition was half-maximal at 5900 nM (IC50).

Test system in the next data set: not listed separately
Briefly: Inhibition of Toxoplasma gondii CDPK1.
Details: not given
The compound `Cc1cccc(Cc2nn(C(C)(C)C)c3ncnc(N)c23)c1` displayed an IC50 of 3.99 nM.

Another data set deals with Toxoplasma gondii. Briefly: Antiparasitic activity against Toxoplasma gondii infected in human HuH7 cells. The format is functional, organism-based.
Details: not given
Consider `O=C1CN(CCCCCN2CCCCC2)c2ccc([N+](=O)[O-])cc2N1`, for which the MIC50 stood at 3.3 µM (≈ 1.14 µg/mL).

Still in this data set, the particulars now being: Huh-7.
In turn, `OCCCCCCC1COOC2(CCCCCCCCCCC2)OO1` (centres undefined) came in with a median lethal concentration (LC50) of 1.11 µg/mL (≈ 3.1 µM).

On to `C[C@H]1Cc2c([nH]c3cc(Cl)c(F)cc23)[C@@]2(N1)C(=O)Nc1ccc(Cl)cc12` [CIPARGAMIN], for which the IC50 turned out to be 1000 nM.

The next data set has as its system HFF. Briefly: Cytotoxicity against human HFF cells assessed as reduction in cell viability. It counts as cell-based.
Details: not given
With `CC[C@]1(C)NC(=O)[C@H](CCCCCC(=O)[C@@H](C)OC(C)=O)NC(=O)[C@H]2C[C@H](C)CN2C(=O)[C@H](Cc2ccccc2)NC1=O`, the half-maximal effective concentration (EC50) came out at 632 nM.

For the compound `CC[C@]1(C)NC(=O)[C@H](CCCCCC(=O)[C@@H](C)OC(=O)Oc2ccccc2)NC(=O)[C@H]2C[C@H](C)CN2C(=O)[C@H](Cc2ccccc2)NC1=O`, the EC50 came out at 59.2 nM.

Test system in another data set: not listed separately
As to the kind of experiment: Selectivity index, ratio of EC50 for human HFF cells to EC50 Toxoplasma gondii RH. The format is functional.
Details: not given
For the compound `CC[C@]1(C)NC(=O)[C@H](CCCCCC(=O)[C@@H](C)OC(C)=O)NC(=O)[C@H]2C[C@H](C)CN2C(=O)[C@H](Cc2ccccc2)NC1=O`, the “Selectivity Index” value was 62.

For `CC[C@]1(C)NC(=O)[C@H](CCCCCC(=O)[C@@H](C)OC(=O)Oc2ccccc2)NC(=O)[C@H]2C[C@H](C)CN2C(=O)[C@H](Cc2ccccc2)NC1=O`, the “Selectivity Index” value is given as 47.7.

Test system in another data set: not listed separately
Briefly: Therapeutic index, ratio of TD50 in CF-1 mouse to IC50 of Toxoplasma gondii infected in human HFF cells. The format is toxicity, cell-based. The note with it: read-out: TI.
Consider `Cc1[nH]c2ccccc2c(=O)c1-c1ccc(Oc2ccc(OC(F)(F)F)cc2)cc1`, for which the selectivity ratio is 93500.

In the case of `COc1cc2[nH]c(C)c(-c3ccc(Oc4ccc(OC(F)(F)F)cc4)cc3)c(=O)c2cc1F`, the selectivity ratio is above 7.1e+06.

For a further data set, the system named is Huh-7. Briefly: Cytotoxicity against human HuH7 cells assessed as reduction in cell viability.
Details: not given
It counts as functional, cell-based.
On to `OCCCCCCC1COOC2(CCCCCCCCCCC2)OO1` (centres undefined), for which the 50% inhibitory concentration (IC50) is 310 µg/mL (≈ 865 µM).

In a further data set the test system is Toxoplasma gondii. Briefly: Antiparasitic activity against Toxoplasma gondii RH infected in human HFF cells in presence of […] by radio-labelled assay. It counts as functional, organism-based.
Details: not given
In the case of `CC[C@]1(C)NC(=O)[C@H](CCCCCC(=O)[C@@H](C)OC(C)=O)NC(=O)[C@H]2C[C@H](C)CN2C(=O)[C@H](Cc2ccccc2)NC1=O`, the EC50 was determined as 10.2 nM.

On to `C=C(C)[C@H](CC=C(C)C)C[C@]12C[C@H](CC=C(C)C)C(C)(C)[C@](CC=C(C)C)(C(=O)C(C(=O)c3ccc(O)c(O)c3)=C1O)C2=O`, for which the EC50 was found to be 1800 nM.

`CC[C@]1(C)NC(=O)[C@H](CCCCCC(=O)[C@@H](C)OC(=O)Oc2ccccc2)NC(=O)[C@H]2C[C@H](C)CN2C(=O)[C@H](Cc2ccccc2)NC1=O`: the EC50 stood at 11.3 nM.

Test system in the next data set: not listed separately
Briefly: Half life of the compound. The format is physicochemical.
Details: not given
On to `CCN(CC)c1ccc(C(=O)NC(=O)c2ccccc2O)cc1`, for which the half-life turned out to be 33 min.

Regarding `CCc1ccc(C(=O)NC(=O)c2ccccc2O)cc1`, the half-life is below 10 min.

For the next data set, the system named is Toxoplasma gondii. Briefly: Antiparasitic activity against Toxoplasma gondii infected in human HFF cells after 4 hrs by CellTiter 96Aqueous One cell viability assay. The format is functional, organism-based.
Details: not given
The compound `Cc1[nH]c2ccccc2c(=O)c1-c1ccc(Oc2ccc(OC(F)(F)F)cc2)cc1` yielded an IC50 of 1 nM.

`COc1cc2[nH]c(C)c(-c3ccc(Oc4ccc(OC(F)(F)F)cc4)cc3)c(=O)c2cc1F` gave an IC50 of 0.007 nM.

For the compound `Cc1[nH]c2cc(F)cc(F)c2c(=O)c1-c1ccc(Oc2ccc(OC(F)(F)F)cc2)cc1`, the response was half-maximal at 5 nM (EC50).

The subject of the next data set is Toxoplasma gondii. Briefly: Antiparasitic activity against Toxoplasma gondii infected in human HFF cells after 4 hrs.
Details: not given
It counts as functional, organism-based.
In turn, `CC(C)(C)C1=CC(=NNc2ccc([N+](=O)[O-])cc2[N+](=O)[O-])C=C(C(C)(C)C)C1=O` gave an IC50 of 130 nM.

`CC(C)(C)C1=CC(=NNC(=O)c2ccc([N+](=O)[O-])cc2)C=C(C(C)(C)C)C1=O` had a 50% inhibitory concentration (IC50) of 200 nM.

Compound `CC(C)(C)C1=CC(=NNC(=O)c2ccncc2)C=C(C(C)(C)C)C1=O` gave a half-inhibitory concentration (IC50) of 2300 nM.

For `CCOc1ccc(/C=C/c2nc(=O)c3ccccc3o2)cc1`, the IC50 worked out at 270 nM.

Regarding `CC(C)(C)c1cc(C2C(C#N)=C(N)OC3=C2C(=O)CCC3)cc(C(C)(C)C)c1O` (centres undefined), the midpoint of inhibition, the IC50, lay at 1300 nM.

A word on the IC50: it is the point on the concentration scale where inhibition reaches its midpoint. What is called EC50 is the concentration at which the effect is half-maximal. The term ED50 denotes the dose at which the effect has come halfway, by size or by number of responders. The low end stands for greater potency, the high end for weaker potency. One may read the MIC50 as an inhibitory concentration at the 50% level, which refers to growth in some studies and to a panel of isolates in others. Read a low MIC50 as greater potency. A word on the LC50: it is the concentration that kills 50% of the test population. High values mean a less lethal substance, low ones a more lethal substance. A word on the half-life: it is the time in which the quantity being followed falls by half.

Source of the values: ChEMBL document CHEMBL4402536, “Recent progress on anti-Toxoplasma drugs discovery: Design, synthesis and screening” (Eur J Med Chem, 2019).
